Experimental data as given in patent US9585821B2, “Methods for making compositions for improving skin conditions” (Allergan Industrie SAS, priority 2010, dated 2017).

Columns and labels:
[1] = known, cited from earlier work
[2] = Appearance of fluid compositions, visually examined; assay type: physicochemical; settings: fluid compositions comprising a matrix polymer
Protocol: Fluid compositions made for testing were prepared as described in Example 1, except that 1) 1 mL of each fluid composition was made and the amount of mannitol added to the test fluid compositions was 0% (w/v) for control, 0.5% (w/v), 5% (w/v), 9% (w/v), and 17% (w/v). The appearance of the fluid compositions was visually examined.

[3] = Chemical and physical stability of mannitol after sterilization; assay type: physicochemical; settings: 25% Mannitol autoclaved five times at 121° C. for 15 minutes
Protocol: The chemical and physical stability of mannitol after sterilization was determined by autoclaving 25% Mannitol ([…] Pharmaceuticals, Itasca, Ill.) five times at 121° C. for 15 minutes.

OC[C@@H](O)[C@@H](O)[C@H](O)[C@H](O)CO [mannitol]
mass solubility ([1]; in water): 15.4% | mannitol solubility in water [1]: 1 g mannitol/5.5 ml water | mannitol that fluid compositions can include before it begins to precipitate [2]: about 15.4% | chemical and physical stability after sterilization [3]: chemically and physically stable
